The source of these data is US8501936B2 (priority 2009, dated 2013).

Assay [1] addresses human JAK2 (Homo sapiens (Human), UniProt O60674). The conditions noted are these: read-out: JAK2 IC50.
Assay [2] deals with human FAK (Homo sapiens (Human), UniProt Q05397). The conditions noted are these: read-out: FAK IC50.
human FAK, sequence (Q05397 whole entry): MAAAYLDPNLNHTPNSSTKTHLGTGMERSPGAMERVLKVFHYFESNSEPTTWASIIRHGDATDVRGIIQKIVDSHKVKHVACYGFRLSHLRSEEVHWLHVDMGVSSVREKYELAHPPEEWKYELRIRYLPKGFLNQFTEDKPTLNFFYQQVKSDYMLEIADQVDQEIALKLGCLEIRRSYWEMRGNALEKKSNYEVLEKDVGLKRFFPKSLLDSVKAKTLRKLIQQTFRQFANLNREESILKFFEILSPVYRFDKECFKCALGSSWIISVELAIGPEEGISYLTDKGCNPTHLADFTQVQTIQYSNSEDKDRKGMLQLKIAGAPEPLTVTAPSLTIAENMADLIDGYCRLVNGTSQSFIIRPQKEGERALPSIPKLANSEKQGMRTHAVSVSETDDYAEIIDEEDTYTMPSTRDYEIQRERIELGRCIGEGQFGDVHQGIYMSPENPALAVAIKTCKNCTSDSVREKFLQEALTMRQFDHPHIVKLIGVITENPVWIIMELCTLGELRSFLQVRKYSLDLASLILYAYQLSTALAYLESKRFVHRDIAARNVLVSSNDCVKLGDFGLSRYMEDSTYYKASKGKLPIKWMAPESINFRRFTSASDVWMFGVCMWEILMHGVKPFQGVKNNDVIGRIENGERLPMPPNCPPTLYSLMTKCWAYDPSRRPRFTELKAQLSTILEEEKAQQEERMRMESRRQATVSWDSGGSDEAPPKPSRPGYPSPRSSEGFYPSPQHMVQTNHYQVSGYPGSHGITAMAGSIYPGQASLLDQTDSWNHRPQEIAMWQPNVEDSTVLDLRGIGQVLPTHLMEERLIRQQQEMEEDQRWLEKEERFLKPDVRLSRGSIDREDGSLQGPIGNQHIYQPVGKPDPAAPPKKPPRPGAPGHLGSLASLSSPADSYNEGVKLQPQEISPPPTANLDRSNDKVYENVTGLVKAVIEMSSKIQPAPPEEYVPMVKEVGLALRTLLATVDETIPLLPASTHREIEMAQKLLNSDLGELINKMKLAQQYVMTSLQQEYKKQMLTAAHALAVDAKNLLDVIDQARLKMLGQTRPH
Experimental: The ability of compounds to inhibit the kinase activity of baculovirus-expressed human FAK and PYK2 was measured using the 96-well plate TRF assay system described above for JAK2. […] For the FAK kinase assay, the reaction mixture (total volume=100 μL/well) contained 20 mM HEPES (pH 7.2), 10 μM ATP, 5 mM MgCl2, 0.5 mM DTT, 0.1% BSA, and test compound (diluted in DMSO; 2.5% DMSO final in assay). For PYK2, the 100 μL assay solution consisted of 20 mM HEPES (pH 7.2), 3 μM ATP, 5 mM MnCl2, 0.1% BSA, and test compound (diluted in DMSO; 2.5% DMSO final in assay). Enzyme (10 ng/mL FAK or 25 ng/mL PYK2) was added and the reaction was allowed to proceed at room temperature for 30 min. Detection of the phosphorylated product was performed by adding 100 μL/well of Eu—N1 labeled PY100 antibody diluted 1:75000 in 0.25% BSA in TBS-T (PerkinElmer #AD0041). […] Inhibition data were analyzed using ActivityBase and IC50 curves generated using XLFit.

human JAK2, sequence (O60674 815-1132): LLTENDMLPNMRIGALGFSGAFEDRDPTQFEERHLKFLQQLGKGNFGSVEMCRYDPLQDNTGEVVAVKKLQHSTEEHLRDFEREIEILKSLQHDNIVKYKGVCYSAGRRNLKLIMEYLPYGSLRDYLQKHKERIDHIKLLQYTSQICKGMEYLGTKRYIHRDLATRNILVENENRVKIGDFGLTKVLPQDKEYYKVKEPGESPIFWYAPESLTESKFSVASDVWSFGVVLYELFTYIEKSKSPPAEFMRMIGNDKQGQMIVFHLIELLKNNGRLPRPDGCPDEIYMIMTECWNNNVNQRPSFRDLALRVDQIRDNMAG

On to `COc1ccccc1-c1cccn2nc(Nc3ccc(N4CCOCC4)cc3)nc12` [Example 2, [8-(2-Methoxy-phenyl)-[1,2,4]triazolo[1,5-a]pyridin-2-yl]-(4-morpholin-4-yl-phenyl)-amine], for which the values for the IC50 in assay [1] and in assay [2] were 20 nM and 6500 nM, respectively. On the same counts, the results for `CS(=O)(=O)c1ccc(-c2cccn3nc(Nc4ccc(N5CCOCC5)cc4)nc23)cc1` [Example 4, [8-(4-Methanesulfonyl-phenyl)-[1,2,4]triazolo[1,5-a]pyridin-2-yl]-(4-morpholin-4-yl-phenyl)-amine] are 0.9 nM and 461 nM.

Regarding `c1cncc(-c2cccn3nc(Nc4ccc(N5CCOCC5)cc4)nc23)c1` [Example 6, (4-Morpholin-4-yl-phenyl)-(8-pyridin-3-yl-[1,2,4]triazolo[1,5-a]pyridin-2-yl)-amine], the IC50 turned out to be 25.9 nM in assay [1] and 3000 nM in assay [2]. Take `COc1ccc(-c2cccn3nc(Nc4ccc(N5CCOCC5)cc4)nc23)cn1` [Example 8, [8-(6-Methoxy-pyridin-3-yl)-[1,2,4]triazolo[1,5-a]pyridin-2-yl]-(4-morpholin-4-yl-phenyl)-amine]: the IC50 is 13.4 nM in assay [1] and 1480 nM in assay [2].

As for `CS(=O)(=O)c1ccc(-c2cccn3nc(Nc4ccc(OCCN5CCCC5)cc4)nc23)cc1` [Example 10, [8-(4-Methanesulfonyl-phenyl)-[1,2,4]triazolo[1,5-a]pyridin-2-yl]-[4-(2-pyrrolidin-1-yl-ethoxy)-phenyl]-amine], the figures for the IC50 in assay [1] and in assay [2] were 1 nM and 206 nM, respectively. For `c1cc(-c2ccncc2)c2nc(Nc3ccc(N4CCOCC4)cc3)nn2c1` [Example 11, (4-Morpholin-4-yl-phenyl)-(8-pyridin-4-yl-[1,2,4]triazolo[1,5-a]pyridin-2-yl)-amine], in that order: 5.5 nM and 6500 nM.

Regarding `CS(=O)(=O)c1ccc(-c2cccc3nc(Nc4ccc(N5CCOCC5)cc4)nn23)cc1` [Example 12, [5-(4-Methanesulfonyl-phenyl)-[1,2,4]triazolo[1,5-a]pyridin-2-yl]-(4-morpholin-4-yl-phenyl)-amine], the IC50 came to 0.7 nM in assay [1] and 434 nM in assay [2].

With `CS(=O)(=O)c1cccc(-c2cccn3nc(Nc4ccc(OCCN5CCCC5)cc4)nc23)c1` [Example 13, [8-(3-Methanesulfonyl-phenyl)-[1,2,4]triazolo[1,5-a]pyridin-2-yl]-[4-(2-pyrrolidin-1-yl-ethoxy)-phenyl]-amine], the IC50 was found to be 3 nM in assay [1] and 524 nM in assay [2]. For `CS(=O)(=O)c1ccc(-c2cccn3nc(Nc4ccc(OCCN5CCOCC5)cc4)nc23)cc1` [Example 26, [8-(4-Methanesulfonyl-phenyl)-[1,2,4]triazolo[1,5-a]pyridin-2-yl]-[4-(2-morpholin-4-yl-ethoxy)-phenyl]-amine], in that order: 1.3 nM and 585 nM. On the same counts, the results for `CS(=O)(=O)c1ccc(-c2cccn3nc(Nc4cccc(N5CCOCC5)c4)nc23)cc1` [Example 27, [8-(4-Methanesulfonyl-phenyl)-[1,2,4]triazolo[1,5-a]pyridin-2-yl]-(3-morpholin-4-yl-phenyl)-amine] are 0.4 nM and 2020 nM. On to `CS(=O)(=O)c1cccc(-c2cccn3nc(Nc4cccc(N5CCOCC5)c4)nc23)c1` [Example 29, [8-(3-Methanesulfonyl-phenyl)-[1,2,4]triazolo[1,5-a]pyridin-2-yl]-(3-morpholin-4-yl-phenyl)-amine], for which the figures for the IC50 in assay [1] and in assay [2] were 5.6 nM and 1350 nM, respectively. On the same counts, the results for `CN1CCN(c2ccc(Nc3nc4c(-c5ccc(S(C)(=O)=O)cc5)cccn4n3)cc2)CC1` [Example 32, [8-(4-Methanesulfonyl-phenyl)-[1,2,4]triazolo[1,5-a]pyridin-2-yl]-[4-(4-methyl-piperazin-1-yl)-phenyl]-amine] are 2.4 nM and 410 nM.

As for `CN1CCN(c2cccc(Nc3nc4c(-c5ccc(S(C)(=O)=O)cc5)cccn4n3)c2)CC1` [Example 35, [8-(4-Methanesulfonyl-phenyl)-[1,2,4]triazolo[1,5-a]pyridin-2-yl]-[3-(4-methyl-piperazin-1-yl)-phenyl]-amine], the IC50 in assay [1] is 1.3 nM; in assay [2], 1060 nM. On the same counts, the results for `COc1ccc(Nc2nc3c(Nc4ccc(S(C)(=O)=O)cc4)cccn3n2)cc1` [Example 38, N(8)-(4-Methanesulfonyl-phenyl)-N(2)-(4-methoxy-phenyl)-[1,2,4]triazolo[1,5-a]pyridine-2,8-diamine] are 470 nM and 10000 nM. On the same counts, the results for `COc1ccc(Nc2nc3c(-c4cn[nH]c4)cccn3n2)cc1` [Example 39, (4-Methoxy-phenyl)-[8-(1H-pyrazol-4-yl)-[1,2,4]triazolo[1,5-a]pyridin-2-yl]-amine] are 32.6 nM and 2360 nM. Turning to `COc1cccc(Nc2nc3c(-c4ccc(S(C)(=O)=O)cc4)cccn3n2)c1` [Example 40, [8-(4-Methanesulfonyl-phenyl)-[1,2,4]triazolo[1,5-a]pyridin-2-yl]-(3-methoxy-phenyl)-amine], the IC50 in assay [1] was 1 nM; in assay [2] it was 1360 nM. For `COc1ccc(Nc2nc3c(-c4cnn(S(C)(=O)=O)c4)cccn3n2)cc1` [Example 42, [8-(1-Methanesulfonyl-1H-pyrazol-4-yl)-[1,2,4]triazolo[1,5-a]pyridin-2-yl]-(4-methoxy-phenyl)-amine], in that order: 3 nM and 507 nM. `CS(=O)(=O)c1ccc(-c2cccn3nc(Nc4ccc(CN5CCOCC5)cc4)nc23)cc1` [Example 43, [8-(4-Methanesulfonyl-phenyl)-[1,2,4]triazolo[1,5-a]pyridin-2-yl]-(4-morpholin-4-ylmethyl-phenyl)-amine]: the figures for the IC50 in assay [1] and in assay [2] were 2.2 nM and 1170 nM, respectively.

Regarding `CN1CCN(Cc2ccc(Nc3nc4c(-c5ccc(S(C)(=O)=O)cc5)cccn4n3)cc2)CC1` [Example 44, [8-(4-Methanesulfonyl-phenyl)-[1,2,4]triazolo[1,5-a]pyridin-2-yl]-[4-(4-methyl-piperazin-1-ylmethyl)-phenyl]-amine], the IC50 in assay [1] is 2.4 nM; in assay [2], 1130 nM. For `CS(=O)(=O)c1ccc(-c2cccn3nc(Nc4cccc(CN5CCOCC5)c4)nc23)cc1` [Example 46, [8-(4-Methanesulfonyl-phenyl)-[1,2,4]triazolo[1,5-a]pyridin-2-yl]-(3-morpholin-4-ylmethyl-phenyl)-amine], in that order: 0.6 nM and 953 nM.

Take `COc1ccc(Nc2nc3c(Nc4ccccc4S(C)(=O)=O)cccn3n2)cc1` [Example 47, N(8)-(2-Methanesulfonyl-phenyl)-N(2)-(4-methoxy-phenyl)-[1,2,4]triazolo[1,5-a]pyridine-2,8-diamine]: the IC50 in assay [1] amounted to 12.8 nM; in assay [2] it was 3000 nM. In the case of `CN1CCN(c2ccc(Nc3nc4c(-c5ccc(CS(C)(=O)=O)cc5)cccn4n3)cc2)CC1` [Example 48, [8-(4-Methanesulfonylmethyl-phenyl)-[1,2,4]triazolo[1,5-a]pyridin-2-yl]-[4-(4-methyl-piperazin-1-yl)-phenyl]-amine], the IC50 in assay [1] was determined as 0.7 nM; in assay [2], 1720 nM. For `CN1CCN(C2CCN(c3ccc(Nc4nc5c(-c6ccc(S(C)(=O)=O)cc6)cccn5n4)cc3)CC2)CC1` [Example 51, [8-(4-Methanesulfonyl-phenyl)-[1,2,4]triazolo[1,5-a]pyridin-2-yl]-{4-[4-(4-methyl-piperazin-1-yl)-piperidin-1-yl]-phenyl}-amine], in that order: 1.8 nM and 168 nM.

In the case of `CC(C)S(=O)(=O)c1ccc(-c2cccn3nc(Nc4ccc(N5CCN(C)CC5)cc4)nc23)cc1` [Example 52, [4-(4-Methyl-piperazin-1-yl)-phenyl]-{8-[4-(propane-2-sulfonyl)-phenyl]-[1,2,4]triazolo[1,5-a]pyridin-2-yl}-amine], the IC50 is 2.1 nM in assay [1] and 306 nM in assay [2]. On the same counts, the results for `CC(C)S(=O)(=O)c1ccc(-c2cccn3nc(Nc4cccc(N5CCN(C)CC5)c4)nc23)cc1` [Example 53, [3-(4-Methyl-piperazin-1-yl)-phenyl]-{8-[4-(propane-2-sulfonyl)-phenyl]-[1,2,4]triazolo[1,5-a]pyridin-2-yl}-amine] are 1.3 nM and 865 nM. In the case of `COc1ccccc1-c1cccn2nc(Nc3ccc(N4CCN(C)CC4)cc3)nc12` [Example 55, [8-(2-Methoxy-phenyl)-[1,2,4]triazolo[1,5-a]pyridin-2-yl]-[4-(4-methyl-piperazin-1-yl)-phenyl]-amine], the figures for the IC50 in assay [1] and in assay [2] were 38.4 nM and 3000 nM, respectively. For `COc1ccccc1-c1cccn2nc(Nc3cccc(N4CCN(C)CC4)c3)nc12` [Example 56, [8-(2-Methoxy-phenyl)-[1,2,4]triazolo[1,5-a]pyridin-2-yl]-[3-(4-methyl-piperazin-1-yl)-phenyl]-amine], in that order: 26.8 nM and 3000 nM. On the same counts, the results for `CN1CCN(C2CCN(c3cccc(Nc4nc5c(-c6ccc(S(C)(=O)=O)cc6)cccn5n4)c3)CC2)CC1` [Example 58, [8-(4-Methanesulfonyl-phenyl)-[1,2,4]triazolo[1,5-a]pyridin-2-yl]-{3-[4-(4-methyl-piperazin-1-yl)-piperidin-1-yl]-phenyl}-amine] are 1.5 nM and 2390 nM. As for `CN1CCN(c2ccc(Nc3nc4c(-c5cccc(S(C)(=O)=O)c5)cccn4n3)cc2)CC1` [Example 59, [8-(3-Methanesulfonyl-phenyl)-[1,2,4]triazolo[1,5-a]pyridin-2-yl]-[4-(4-methyl-piperazin-1-yl)-phenyl]-amine], the half-inhibitory concentration (IC50) is 3.3 nM in assay [1] and 2590 nM in assay [2]. In the case of `COc1ccc(C(F)(F)F)cc1Nc1cccn2nc(Nc3cccc(N4CCN(C)CC4)c3)nc12` [Example 290, N(8)-(2-Methoxy-5-trifluoromethyl-phenyl)-N(2)-[3-(4-methyl-piperazin-1-yl)-phenyl]-[1,2,4]triazolo[1,5-a]pyridine-2,8-diamine], in assay [1], the IC50 is 3000 nM.
